Patent US10159256B2, “Organic pruning wound composition” (The Regents of the University of California, priority 2014, dated 2018)

Columns and labels:
Experiment in all cases: Micro- and macronutrients tested against trunk disease fungi
Conditions in all cases: among all micro- and macronutrients tested
D. seriata = system: D. seriata
Text: (§1) However, these products are not registered as organic products, leaving organic growers with no alternatives for controlling trunk diseases.

E. lata = system: E. lata
Text: as §1

P. viticola = system: P. viticola
Text: as §1

Pa. chlamydospora = system: Pa. chlamydospora
Text: as §1

Pm. Alephilum = system: Pm. Alephilum
Text: as §1

[B] [boron (B), boron]
most effective: effectiveness against D. seriata (D. seriata) | effectiveness against E. lata (E. lata) | effectiveness against P. viticola (P. viticola) | effectiveness against Pa. chlamydospora (Pa. chlamydospora) | effectiveness against Pm. Alephilum (Pm. Alephilum)

[Zn] [zinc (Zn), zinc]
most effective: effectiveness against D. seriata (D. seriata) | effectiveness against E. lata (E. lata) | effectiveness against P. viticola (P. viticola) | effectiveness against Pa. chlamydospora (Pa. chlamydospora) | effectiveness against Pm. Alephilum (Pm. Alephilum)
